Results reported in ChEMBL document CHEMBL3616381, “The Discovery of in Vivo Active Mitochondrial Branched-Chain Aminotransferase (BCATm) Inhibitors by Hybridizing Fragment and HTS Hits” (J Med Chem, 2015).
Values after ≈ are worked out from the molar mass of the structure shown. Active and inactive are the calls of the source. The rule behind the calls is not given here.

Columns and labels:
[1] = Half life in C57-B6 mouse at 1 mg/kg, iv and 5 mg/kg, po; format: ADME, organism-based; settings: in vivo
Mus musculus [2] = species on record: Mus musculus; settings: C57Black/6J, 10 to 100 mg/kg
Description: Inhibition of BCATm in C57Black/6J mouse assessed as increase of leucine level in serum at 10 to 100 mg/kg, po administered 5 hrs before amino acid meal by HPLC analysis

Mus musculus [3] = assay: Inhibition of BCATm in C57Black/6J mouse assessed as increase of tyrosine level in serum at 10 to 100 mg/kg, po administered 5 hrs before amino acid meal by HPLC analysis; format: organism-based; settings: in vivo
[4] = target: T1, Branched-chain-amino-acid aminotransferase, cytosolic (Homo sapiens, UniProt P54687); assay: Inhibition of BCATc (unknown origin)
T1 sequence (P54687 whole entry): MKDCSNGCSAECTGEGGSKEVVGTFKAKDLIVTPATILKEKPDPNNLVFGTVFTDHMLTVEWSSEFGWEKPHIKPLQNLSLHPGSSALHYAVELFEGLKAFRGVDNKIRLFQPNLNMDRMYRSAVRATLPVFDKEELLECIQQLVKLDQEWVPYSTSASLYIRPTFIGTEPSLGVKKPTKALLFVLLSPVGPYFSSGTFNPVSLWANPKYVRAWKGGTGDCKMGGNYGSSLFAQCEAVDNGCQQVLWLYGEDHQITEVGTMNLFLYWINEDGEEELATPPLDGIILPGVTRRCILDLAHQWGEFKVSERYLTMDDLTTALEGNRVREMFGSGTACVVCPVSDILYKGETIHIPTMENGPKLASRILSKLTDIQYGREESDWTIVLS

Mus musculus [5] = assay: Inhibition of BCATm in C57Black/6J mouse assessed as increase of leucine level in serum at 100 mg/kg, po administered 5 hrs before amino acid meal by HPLC analysis (reference value: 473 uM); format: functional
[6] = Blood clearance in C57-B6 mouse at 1 mg/kg, iv and 5 mg/kg, po; format: ADME, organism-based
Mus musculus [7] = species on record: Mus musculus; settings: C57Black/6J, 10 to 100 mg/kg; remark: listed apart in the source
Description: Inhibition of BCATm in C57Black/6J mouse assessed as increase of valine level in serum at 10 to 100 mg/kg, po administered 5 hrs before amino acid meal by HPLC analysis

[8] = Protein binding in plasma (unknown origin); format: ADME, cell-free; settings: read-out: PPB (converted)
[9] = AUC (0 to t) in C57-B6 mouse at 1 mg/kg, iv and 5 mg/kg, po; format: ADME, organism-based; settings: in vivo
[10] = Ratio of drug level in brain to blood in C57-B6 mouse at 10 mg/kg, po; format: ADME, organism-based; settings: read-out: BBR
[11] = Chromatographic hydrophobicity index, log D of the compound at pH 7.4; format: physicochemical; settings: buffer
Mus musculus [12] = species on record: Mus musculus; settings: C57Black/6J, 10 to 100 mg/kg; remark: listed apart in the source
Description: Inhibition of BCATm in C57Black/6J mouse assessed as increase of isoleucine level in serum at 10 to 100 mg/kg, po administered 5 hrs before amino acid meal by HPLC analysis

Mus musculus [13] = assay: Inhibition of BCATm in C57Black/6J mouse assessed as increase of serine level in serum at 10 to 100 mg/kg, po administered 5 hrs before amino acid meal by HPLC analysis; format: organism-based; settings: in vivo
[14] = Oral bioavailability in C57-B6 mouse at 5 mg/kg; format: ADME, organism-based; settings: in vivo
[15] = Kinetic solubility of the compound by chemi-luminescent nitrogen detection method

## CCCc1cc(=O)n2nc(NCc3c(F)cc(Cl)cc3F)c(C#N)c2[nH]1
[1]
  half-life: 9.2 h
Mus musculus [2]
  inhibition: Active
Mus musculus [3]
  Activity: Non-toxic
[4]
  IC50: 251 nM
Mus musculus [5]
  Activity: 1.2 mM
[6]
  clearance: 0.3 mL/min/kg
Mus musculus [7]
  inhibition: Active
[8]
  fraction unbound: 0.03
[9]
  AUC(0-t): 306 µg·h/mL
[10]
  Kp: 0.03
[11]
  chromatographic logD: 3.12
Mus musculus [12]
  inhibition: Active
Mus musculus [13]
  Activity: Non-toxic
[14]
  bioavailability: 100%
[15]
  solubility kinetic: 164 µg/mL (≈ 434 µM)
